Our source for the TGI and GI50 values is PubChem BioAssay (NCI).

Holding throughout (assay): NCI anticancer screen, dose series, 48 h
Assay [1] has as its system SK-OV-3 ovarian.
The subject of assay [2] is NCI-H23 lung.
Assay [3] relates to RPMI-8226 leukemia.
In assay [4] the test system is MOLT-4 leukemia.
Assay [5] has as its system NCI-H460 lung.
The subject of assay [6] is U251 CNS.
For assay [7], the system named is HOP-62 NSCLC.
The subject of assay [8] is RXF 393 renal.
The test system of assay [9] is SNB-75 CNS.
The subject of assay [10] is HOP-92 NSCLC.

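Dose response: 5 concentrations. Exposure: 48 h. Format: 96-well plates. Endpoint: linear interpolation; highest concentration if not reached. GI50 marks 50% less growth. Definition used: TGI = concentration required for complete inhibition of growth.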

With `Cc1nc(C(N)=S)sc1C(=O)C/C(=N/N)C(=O)Nc1cccc(Cl)c1C`, the TGI in assay [1], in assay [2], in assay [3], in assay [4], in [5] and in assay [6] was greater than 100 µM in each case. Moreover, the TGI in assay [7], in assay [8], in assay [9] and in [10] was greater than 100 µM each time.
With `CCOc1c(Cl)cc(CNC(C)C(O)c2ccccc2)cc1OC` (centres undefined), the GI50 was 41.1 µM in assay [1]; 31.3 µM in assay [2]; 25.5 µM in [3]; 26 µM in [4]; 18.3 µM in assay [5]; 19.5 µM in assay [6]. Besides, the GI50 was 31 µM in [7], 16.4 µM in [8], 12.7 µM in assay [9] and 12.9 µM in [10]. In addition, the TGI was greater than 100 µM in [1]; greater than 100 µM in assay [2]; 57.7 µM in [3]; 85.7 µM in assay [4]; 35.9 µM in assay [5]; 46.1 µM in assay [6]. The TGI in assay [7] is greater than 100 µM; in [8], 52.1 µM; in assay [9], 46.9 µM; in assay [10] it was 48.5 µM.
As for `C=C(C=O)CCCC(C)[C@@H]1CCC23CC12CCC1[C@@]2(C)CCC(OC(C)=O)C(C)(C)C2CC(OC2OC(COC(C)=O)C(O)C(O)C2O)[C@]13C` (some centres undefined), the TGI came out at 12 µM in assay [1]; 14.8 µM in assay [2]; 3.01 µM in assay [3]; 3.03 µM in [4]; 16.1 µM in [5]; 8.56 µM in [6]. The TGI in assay [7] amounted to 14.3 µM; in assay [8] it was 11.7 µM; in assay [9], 11.4 µM; in assay [10], 12.4 µM.
In the case of `C=C=C(C(=O)OC)S(=O)c1ccc([N+](=O)[O-])cc1[N+](=O)[O-]` (centres undefined), the TGI in assay [1] is greater than 100 µM; in [2] it was greater than 87.3 µM; in assay [3] it was 55.1 µM; in [4], 50.3 µM; in [5], greater than 91.2 µM; in assay [6] it was 62.7 µM. The TGI in [7] was greater than 82.5 µM; in assay [8] it was greater than 68 µM; in [9] it was greater than 69.7 µM; in assay [10], 66.7 µM.
On to `c1nnc(NCNc2nncs2)s1`, for which the TGI was greater than 100 µM in [1]; greater than 100 µM in [2]; greater than 100 µM in assay [3]; greater than 100 µM in [4]; 83.6 µM in assay [5]; greater than 100 µM in [6]. Also, the TGI in [7], in assay [8], in assay [9] and in assay [10] was greater than 100 µM throughout.
Turning to `NC(=O)c1ccc(C2C3=C(CCCC3=O)OC3=C2C(=O)c2ccccc2C3=O)cc1` (centres undefined), the GI50 in assay [1] was 2.12 µM; in [2], 0.202 µM; in assay [3], 0.521 µM; in assay [4], 0.361 µM; in [5], 0.458 µM; in [6], 0.358 µM. Besides, the GI50 in [7] was 1.35 µM; in assay [8] it was 1.43 µM; in assay [9], 0.277 µM; in [10], 0.855 µM. For the same compound, the TGI amounted to 4.11 µM in assay [1]; 1.14 µM in [2]; 2.63 µM in [3]; 1.4 µM in assay [4]; 2.05 µM in assay [5]; 1.22 µM in assay [6]. The TGI amounted to 2.72 µM in [7], 2.87 µM in assay [8], 1.22 µM in [9] and 2.91 µM in assay [10].
As for `Cc1cc(-c2nnc3n2CCCCC3)c(C)n1-c1ccc(Cl)c(Cl)c1`, the GI50 is 19.2 µM in assay [1]; 12.3 µM in [2]; 9.53 µM in [3]; 15 µM in assay [4]; 17.4 µM in [5]; 14.5 µM in assay [6]. Besides, the GI50 in [7] is 16.8 µM; in assay [8] it was 8.42 µM; in [9], 13.4 µM; in assay [10], 11.9 µM. The TGI in assay [1] stood at 45.7 µM; in [2] it was 35.2 µM; in assay [3], 39.9 µM; in [4] it was 42.9 µM; in assay [5], 45.7 µM; in assay [6], 31.2 µM. For the same compound, the TGI in assay [7] is 32.4 µM; in assay [8], 29.8 µM; in assay [9] it was 27.7 µM; in assay [10], 31.9 µM.
For the compound `Cc1c2ccc(N(C)c3ccnc(Nc4cccc(S(N)(=O)=O)c4)n3)cc2nn1C`, the GI50 in [1] is 7.03 µM; in assay [2] it was 7.49 µM; in assay [3] it was 13.6 µM; in assay [4] it was 8.81 µM; in [5], 7.23 µM; in [6], 10.9 µM. In addition, the GI50 was 9.03 µM in [7], 7.14 µM in [8], 4.33 µM in [9] and 5.41 µM in [10]. The TGI was 20.6 µM in assay [1]; greater than 25 µM in [2]; greater than 25 µM in assay [3]; greater than 23.6 µM in assay [4]; greater than 25 µM in assay [5]; greater than 25 µM in assay [6]. Also, the TGI in assay [7] is greater than 25 µM; in assay [8], greater than 22.7 µM; in [9] it was greater than 22.9 µM; in assay [10] it was 17.9 µM.
As for `COC(=O)c1c(-c2ccccc2)sc(-c2cccc3ccccc23)c1C(=O)OC`, the TGI in [1], in assay [2], in assay [3], in [4], in assay [5] and in assay [6] was greater than 100 µM each time. For the same compound, the TGI in assay [8], in [9] and in assay [10] was greater than 100 µM throughout.
Consider `N#C[C@@H]1C(n2ccc(N)nc2=O)O[C@H](CO)[C@H]1O` (some centres undefined), for which the GI50 is 39.6 µM in assay [1]; 4.51 µM in assay [2]; greater than 100 µM in assay [3]; 0.107 µM in assay [4]; 0.693 µM in assay [5]; 42.7 µM in [6]. Further, the GI50 in assay [7] is 3.97 µM; in assay [8] it was greater than 100 µM; in assay [9], greater than 100 µM; in [10] it was 7.66 µM. For the same compound, the TGI in assay [1], in [2], in [3], in assay [4], in [5] and in [6] was greater than 100 µM in each case. The TGI in [7], in assay [8], in assay [9] and in [10] was greater than 100 µM throughout.
